Data on 31 molecules can be found in ChEMBL document CHEMBL4680115, “Discovery of the programmed cell death-1/programmed cell death-ligand 1 interaction inhibitors bearing an indoline scaffold” (Eur J Med Chem, 2020).

In data set [1] the target is T1, Programmed cell death protein 1/Programmed cell death 1 ligand 1 (Homo sapiens, UniProt Q15116+Q9NZQ7). The experiment in a line: Inhibition of PD-1/PDL1 interaction (unknown origin) by HTRF assay. The data set is classed as protein-complex assay. Background: In TR-FRET formats the signal depends on donor and acceptor labels being close together.
In the next data set the test system is Jurkat. The experiment in a line: Cytotoxicity against human Jurkat T cells assessed as reduction in cell viability measured after 72 hrs by CCK-8 assay. Conditions: for Activity: human, jurkat, time 72 hrs; for EC50: Homo sapiens, Jurkat. In kind it is cell-based. (In general: Formazan colour is commonly taken as a measure of viable cells.)
The target in data set [2] is T1, Programmed cell death protein 1/Programmed cell death 1 ligand 1. The experiment in a line: Inhibition of PD1/PDL1 protein-protein interaction in human PBMC-derived CD3-positive T cells co-cultured with human Hep3B cells expressing human PDL1/OS-8 assessed as increase in IFNgamma secretion at 5 uM measured after 72 hrs relative to BMS-1.
The target is the same in data set [3]. Put plainly: Inhibition of PD1/PDL1 protein-protein interaction in human PBMC-derived CD3-positive T cells co-cultured with human Hep3B cells expressing human PDL1/OS-8 assessed as increase in IFNgamma secretion measured after 72 hrs. The settings on record: dose 0.31-20 µM.
The target is the same in data set [4]. The experiment in a line: Inhibition of PD1/PDL1 protein-protein interaction in human PBMC-derived CD3-positive T cells co-cultured with human Hep3B cells expressing human PDL1/OS-8 assessed as increase in IFNgamma secretion at 20 uM measured after 72 hrs. More on the design: scale not given: the % may be the effect or the level left.

Broadly, the IC50 is the concentration that inhibits the measured activity by half. One may read the EC50 as the midpoint of the concentration-response curve.

T1 sequence (Q15116 whole entry): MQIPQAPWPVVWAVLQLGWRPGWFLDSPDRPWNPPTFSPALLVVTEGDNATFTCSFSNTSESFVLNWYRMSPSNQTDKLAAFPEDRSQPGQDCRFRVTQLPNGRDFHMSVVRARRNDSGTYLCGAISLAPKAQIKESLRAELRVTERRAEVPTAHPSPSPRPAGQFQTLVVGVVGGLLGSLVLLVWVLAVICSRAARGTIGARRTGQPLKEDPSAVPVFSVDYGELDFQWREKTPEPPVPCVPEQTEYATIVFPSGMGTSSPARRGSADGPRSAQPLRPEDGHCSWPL
T1 sequence (Q9NZQ7 whole entry): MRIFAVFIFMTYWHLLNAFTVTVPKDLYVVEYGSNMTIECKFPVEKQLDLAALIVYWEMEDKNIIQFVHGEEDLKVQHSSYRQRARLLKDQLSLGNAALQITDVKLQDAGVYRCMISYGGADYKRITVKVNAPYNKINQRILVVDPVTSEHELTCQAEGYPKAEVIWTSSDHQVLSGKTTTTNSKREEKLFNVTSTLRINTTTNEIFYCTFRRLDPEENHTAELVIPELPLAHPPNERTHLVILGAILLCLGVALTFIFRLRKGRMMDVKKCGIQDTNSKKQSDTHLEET

Regarding `O=C(c1ccc(CNCCO)c(O)c1)N1CCc2c(-c3ccccc3)cccc21`, in data set [1], half-maximal inhibition (IC50) required 304 nM.
In data set [1], `N#Cc1cccc(COc2cc(C(=O)N3CCc4c(-c5ccccc5)cccc43)ccc2CN2CCCC[C@H]2C(=O)O)c1` displayed an IC50 of 1330 nM.
On the same count and under the same terms, next, `O=C(c1ccc(CNCCO)cc1Cl)N1CCc2c(-c3ccccc3)cccc21`: more than 10000 nM.
The same measure, in the same setting: next, `COCCNCc1ccc(C(=O)N2CCc3c(-c4ccccc4)cccc32)cc1OC`: 350 nM; `COc1cc(C(=O)N2CCc3c(-c4ccc5c(c4)OCCO5)cccc32)ccc1CNCCNC(C)=O`: 416 nM; `COc1cc(C(=O)N2CCc3c(-c4ccccc4)cccc32)ccc1CN1CCC[C@H]1C(=O)O`: 1890 nM.
Same read-out and setting: next, `CC(=O)NCCNCc1ccc(C(=O)N2CCc3c(-c4ccccc4)cccc32)cc1Cl`: 589 nM; `Cc1c(-c2ccccc2)cccc1N1Cc2cc(CNCCO)ccc2C1=O`: 7290 nM.
For the molecule `O=C(c1ccc(CNCCO)cc1)N1CCc2c(-c3ccccc3)cccc21`, the Activity entry in the data set with Jurkat is “Toxic”. Moreover, the IC50 in data set [1] was found to be 192 nM.
Take `CC(=O)NCCNCc1ccc(C(=O)N2CCc3c(-c4ccccc4)cccc32)cc1O`: inhibition in data set [1] was half-maximal at 602 nM (IC50).
As to `N#Cc1cccc(COc2cc(C(=O)N3CCc4c(-c5ccccc5)cccc43)ccc2CNCCO)c1`, it took 572 nM to reach half-maximal inhibition in data set [1] (IC50).
Consider `Cc1cc(C(=O)N2CCc3c(-c4ccccc4)cccc32)ccc1CNCCO`, for which the Activity entry in the data set on Jurkat is on record as “Toxic”. Moreover, in data set [1], half-maximal inhibition (IC50) required 212 nM.
Molecule `CC(=O)NCCNCc1cccc(C(=O)N2CCc3c(-c4ccccc4)cccc32)c1` yielded an IC50 in data set [1] of 745 nM.
In the case of `COc1cc(C(=O)N2CCc3c(-c4ccccc4)cccc32)cc(OC)c1CNCCO`, the half-inhibitory concentration (IC50) in data set [1] worked out at 4770 nM.
With `COc1cc(C(=O)N2CCc3c(-c4ccccc4)cccc32)ccc1CNCCO`, in data set [2], the fold change (FC) worked out at 3.21. The EC50 in the data set with Jurkat was 44.7 µM. For the same molecule, the inhibition result in data set [3] was “Dose-dependent effect”. In addition, the Activity in data set [4] was 610%.
Take `COc1cc(C(=O)N2CCc3c(-c4ccccc4)cccc32)ccc1CNCCNC(C)=O`: in the data set on Jurkat, the half-maximal effective concentration (EC50) was found to be 39.8 µM. The inhibition entry in data set [3] was “Dose-dependent effect”. The same molecule gave a half-inhibitory concentration (IC50) in data set [1] of 220 nM.
`Cc1c(-c2ccccc2)cccc1N1Cc2ccc(CNCCO)cc2C1=O` gave an IC50 in data set [1] of 9380 nM.
Same read-out and setting: in the case of `CC(=O)NCCNCc1ccc(C(=O)N2CCc3c(-c4ccccc4)cccc32)cc1OCc1cccc(C#N)c1` it was 1060 nM; in that of `CC(=O)NCCNCc1ccc2c(c1)C(=O)N(c1cccc(-c3ccccc3)c1C)C2`, more than 10000 nM.
Still for that read-out and setting: next, `N#Cc1cccc(COc2cc(C(=O)N3CCc4c(-c5ccccc5)cccc43)ccc2CN[C@H](CO)C(=O)O)c1`: 3280 nM; `COc1cc(C(=O)N2CCc3c(-c4ccccc4)cccc32)ccc1CN1CCCC[C@@H]1C(=O)O`: 1060 nM; `O=C(c1ccc(CNCCO)c(Cl)c1)N1CCc2c(-c3ccccc3)cccc21`: 353 nM.
As for `CC(=O)NCCNCc1ccc(C(=O)N2CCc3c(-c4ccccc4)cccc32)cc1C`, the half-inhibitory concentration (IC50) in data set [1] was determined as 457 nM.
Same read-out and setting: in the case of `CC(=O)NCCNCc1ccc2c(c1)CN(c1cccc(-c3ccccc3)c1C)C2=O` it was more than 10000 nM.
Still for that read-out and setting: next, `O=C(c1cccc(CNCCO)c1)N1CCc2c(-c3ccccc3)cccc21`: 344 nM.
In turn, `COc1cc(C(=O)N2CCc3c(-c4ccccc4)cccc32)ccc1CN[C@H](CO)C(=O)O` registered an IC50 in data set [1] of 278 nM.
With `COc1cc(C(=O)N2CCc3c(-c4ccc5c(c4)OCCO5)cccc32)ccc1CNCCO`, the Activity result in the data set with Jurkat is listed as “Toxic”. Also, the midpoint of inhibition in data set [1], the IC50, lay at 225 nM.
For the molecule `CC(=O)NCCNCc1ccc(C(=O)N2CCc3c(-c4ccccc4)cccc32)cc1`, the half-maximal inhibitory concentration (IC50) in data set [1] was determined as 622 nM.
`COc1cc(C(=O)N2CCc3c(-c4ccccc4)cccc32)ccc1CN1CCC[C@H]1CO` had an IC50 in data set [1] of 620 nM.
The same measure, in the same setting: in the case of `CC(=O)NCCNCc1ccc(C(=O)N2CCc3c(-c4ccccc4)cccc32)c(Cl)c1` it was more than 10000 nM; in that of `COc1cc(C(=O)N2CCc3c(-c4ccccc4)cccc32)cc(OC)c1CNCCNC(C)=O`, 7260 nM.
